Results reported in patent US10363261B2, “Enolase inhibitors and methods of treatment therewith” (Board of Regents, The University of Texas System, priority 2015, dated 2019).

Experiments:
[1] = tested on: Vinculin or Triosephosphate isomerase; assay: Thermal shift assay, internal controls; assay type: binding, human
Method: (§1) Thermal shift assays were conducted as described in Martinez Molina, et al. (2013), on lysates of D423 cell line overexpressing ENO1 and ENO2, on recombinant human ENO1 and ENO2 purified from E. coli as well as intact D423 ENO2 overexpressing glioma cells. […] Lysates were diluted (1:100) in Enolase enzymatic activity buffer as mentioned above. Diluted lysates were treated with SF2312, PhAH or vehicle and heated on a C1000 Thermal cycler (Bio-rad) with a linear temperature gradient (50 to 82.5° C. in 2.5° C. increments) for 3 minutes (FIG. 24). The lysates were then centrifuged at 20,000 g for 10 minutes. Supernatant and pellet were then separated and NuPage LDS Sample buffer (Life Technologies # NP0007) was added. Western Blots were performed as described previously (Muller, et al., 2012). The following antibodies were used: ENO1 (Abcam # ab155102), ENO2 (Dako # M087301-2), Vinculin (EMD Millipore #05-386), pan-ENO (Santa Cruz Biotechnology, sc-7455) and TPI (Proteintech #10713-1-AP). Recombinant human ENO2: The same procedure was carried out on purified recombinant ENO2 from E. coli, utilizing the purified protein generated for the X-ray crystallography studies. […]

ENO2 [2] = biological target: T1, ENO2 (Homo sapiens, UniProt P09104); assay: Enolase enzymatic activity and Michaelis-Menten kinetic analysis, ENO2
Method: Human ENO1 and ENO2 were overexpressed in the human D423 cell line and used for enzymatic assays. […] Enzymatic activity was measured by monitoring fluorescence of NADH at 340 nm Exitation/460 nm emission using an Lactate dehydrogenase/Pyruvate kinase linked assay which links the formation of PEP to the oxidation of NADH to NAD+, as we have described in published work (Muller et al., 2012). Enzymatic activity was normalized to that in the absence of the inhibitor (set to 1) and plotted as function of inhibitor concentration.
The Michaelis-Menten Kinetic analysis was performed using standard methods in the field such as those taught by Voet and Voet, 2011. The enzymatic activity of Enolase 1 or 2 v was determine over a concentration range of 10 mM to 0.5 mM 2-PG [S], in the presence of increasing concentrations of inhibitor [I].
Native lysates of mouse tissues and human cell lines were prepared using 20 mM Tris HCl, 1 mM EDTA, and 1 mM β-mercaptoethanol at pH 7.4 and homogenized using a Polytron homogenizer three times for a period of 10 s followed by sonication, after which the lysates were cleared by centrifugation at 20,000 g for 10 minutes. Enolase activity was measured using two different methods, either by a fluorometric NADH-linked assay or a direct spectrophotometric assay via formation of PEP. In the fluorescent assay, enolase activity was measured via NADH oxidation in a pyruvate kinase-lactate dehydrogenase coupled assay as previously described (Muller, et al., 2012). The assay is conducted in 10 mM KCl, 5 mM MgSO4, 100 mM triethanolamine at pH 7.4, with 400 μM NADH and 2 mM ADP. 2-Phosphoglycerate (2-PGA), pyruvate kinase (PK) and lactate dehydrogenase (LDH) are provided in excess, with conversion of 2-PGA to PEP by enolase being rate limiting. PEP (with ADP) is substrate of PK; pyruvate formed by this reaction is linked to NADH oxidation by LDH. Enolase activity is determined by measuring oxidation of NADH fluorescently by excitation at 340 nm and emission at 460 nm. The substrate concentration, if not otherwise indicated, was 5 mM 2-PGA. Fluorescence was measured using Omega Fluorescence Plate Reader (BMG Labtech). Alternatively, Enolase activity was measured directly by the appearance of PEP from 2-PGA via absorption at 240 nm (Marangos, et al., 1978). The assay medium was the same, except that all the auxiliary reagents (PK/LDH, NADH, ADP) are omitted. Both assays were conducted in a 96-well plated format with the direct assay performed in UV-transmissible plates.

ENO2 [3] = biological target: T1, ENO2; assay: Thermal shift assay on recombinant human ENO2 expressed in E. coli; assay type: binding; design: DNA encoding full length Human Enolase 2 was cloned into pJL-H6 plasmid expression vector; His tag (pJL-H6) (C); made in house; host or cells: E. coli BL21 (DE3); conditions: 10 μM inhibitor
Method: as §1

[4] = tested on: conversion of 13C-glucose to 13C-lactate in D423 ENO1-deleted glioma cells; assay: 13C-NMR tracing of uniformly labeled 13C-glucose to 13C-lactate; conditions: 48 hours, 10 mM 13C-uniformly labeled glucose
Method: (§2) Glucose labeled with heavy, non-radioactive, ^13C at carbon C-1 and ^13C at all carbon atoms were purchased from Cambridge Isotopes (CLM-420-1 and CLM-1396, respectively). Glucose free DMEM media was supplemented with 10 mM ^13C-1 or ^13C-all labeled Glucose. NMR metabolic tracing was performed by substituting conventional DMEM medium with glucose free DMEM medium, to which ^13C-1 glucose (Cambridge Isotopes) was supplemented at 10 mM. […] After 4 days, conditioned media was extracted with 80% methanol at −80° C., lyophilized and resuspended in D2O. Proton-decoupled ^13C NMR spectra were acquired using a 500 MHZ Bruker instrument in the M. D. Anderson NMR core facility.

[5] = tested on: lactate/glucose in D423 ENO1-rescued glioma cells; assay: 13C-NMR tracing of uniformly labeled 13C-glucose to 13C-lactate, rescued cells; conditions: even at 200 μM
Method: as §2

human ENO1 = human ENO1 (Homo sapiens, UniProt P06733); assay: Enolase enzymatic activity, NADH-linked pyruvate kinase/lactate dehydrogenase fluorescence assay, ENO1
Method: (§3) Human ENO1 and ENO2 were overexpressed in the human D423 cell line and used for enzymatic assays. Inhibitors (PhAH, SF2312 and Deoxy-SF2312, Hex, Hepta, Pom-Hex, and Fosmidomycin) were incubated with the enzyme prior to addition of 5 mM 2-PG substrate. Enzymatic activity was measured by monitoring fluorescence of NADH at 340 nm Exitation/460 nm emission using an Lactate dehydrogenase/Pyruvate kinase linked assay which links the formation of PEP to the oxidation of NADH to NAD+, as we have described in published work (Muller et al., 2012). Enzymatic activity was normalized to that in the absence of the inhibitor (set to 1) and plotted as function of inhibitor concentration.
(§4) Enolase activity was measured using two different methods, either by a fluorometric NADH-linked assay or a direct spectrophotometric assay via formation of PEP. In the fluorescent assay, enolase activity was measured via NADH oxidation in a pyruvate kinase-lactate dehydrogenase coupled assay as previously described (Muller, et al., 2012). The assay is conducted in 10 mM KCl, 5 mM MgSO4, 100 mM triethanolamine at pH 7.4, with 400 μM NADH and 2 mM ADP. 2-Phosphoglycerate (2-PGA), pyruvate kinase (PK) and lactate dehydrogenase (LDH) are provided in excess, with conversion of 2-PGA to PEP by enolase being rate limiting. PEP (with ADP) is substrate of PK; pyruvate formed by this reaction is linked to NADH oxidation by LDH. Enolase activity is determined by measuring oxidation of NADH fluorescently by excitation at 340 nm and emission at 460 nm. The substrate concentration, if not otherwise indicated, was 5 mM 2-PGA. Fluorescence was measured using Omega Fluorescence Plate Reader (BMG Labtech). Alternatively, Enolase activity was measured directly by the appearance of PEP from 2-PGA via absorption at 240 nm (Marangos, et al., 1978). The assay medium was the same, except that all the auxiliary reagents (PK/LDH, NADH, ADP) are omitted. Both assays were conducted in a 96-well plated format with the direct assay performed in UV-transmissible plates.

enolase (ENO1 and ENO2) = assay: Enolase inhibitory activity in vitro, isoform not distinguished (ENO1 and ENO2); assay type: biochemical, human; conditions: isolated enzymatic assay
Method: as §3, §4

enolase 2 = biological target: T2, enolase 2 (Homo sapiens, UniProt P09104); assay: Thermal shift assay in intact glioma cells overexpressing ENO2 (D423 ENO2); assay type: cell-based; conditions: 100 μM inhibitor
T2 construct: expressed in transfected cells; host or cells: D423 (D423-MG) human glioma cells, clone pCMV ENO2 1x
Method: as §1

T1 sequence (P09104 whole entry): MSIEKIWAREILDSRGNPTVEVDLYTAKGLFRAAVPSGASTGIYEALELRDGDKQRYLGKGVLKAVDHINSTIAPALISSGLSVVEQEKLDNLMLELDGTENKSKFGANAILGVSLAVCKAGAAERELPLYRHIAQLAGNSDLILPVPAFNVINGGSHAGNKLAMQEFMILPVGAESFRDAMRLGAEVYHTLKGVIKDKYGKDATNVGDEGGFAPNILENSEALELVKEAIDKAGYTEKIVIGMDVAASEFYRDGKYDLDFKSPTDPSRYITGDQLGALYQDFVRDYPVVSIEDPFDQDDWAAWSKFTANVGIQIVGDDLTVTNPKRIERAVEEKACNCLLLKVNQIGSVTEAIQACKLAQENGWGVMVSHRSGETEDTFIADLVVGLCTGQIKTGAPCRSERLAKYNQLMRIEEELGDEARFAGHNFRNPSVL
T2 sequence (P09104 whole entry): as above
human ENO1, sequence (P06733 whole entry, canonical isoform): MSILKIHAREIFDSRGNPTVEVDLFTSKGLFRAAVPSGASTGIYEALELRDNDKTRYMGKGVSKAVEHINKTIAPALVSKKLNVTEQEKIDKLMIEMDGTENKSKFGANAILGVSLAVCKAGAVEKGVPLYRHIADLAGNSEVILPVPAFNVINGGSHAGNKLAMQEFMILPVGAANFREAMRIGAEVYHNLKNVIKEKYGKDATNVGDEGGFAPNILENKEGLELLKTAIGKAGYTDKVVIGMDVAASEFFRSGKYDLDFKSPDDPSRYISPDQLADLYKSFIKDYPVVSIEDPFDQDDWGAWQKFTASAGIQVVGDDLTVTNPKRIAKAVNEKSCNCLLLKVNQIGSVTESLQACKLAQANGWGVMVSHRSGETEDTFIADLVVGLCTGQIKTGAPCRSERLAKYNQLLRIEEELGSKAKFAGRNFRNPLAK

## O=C1C(P(=O)(O)O)CC(O)N1O (racemic) [SF2312, 3-dihydroxyphosphoryl-1,5-dihydroxy-2-pyrrolidone]
[1]
  effect on the thermal stability of the internal controls: neither PhAH nor SF2312 had any effect
ENO2 [2]
  IC50: ~20 nM
ENO2 [2]; ENO2 over ENO1
  potency against ENO2 versus ENO1 (IC50 lower / activity greater for ENO2): 10 fold
ENO2 [2]; SF2312: at IC50
  inhibition kinetics with respect to substrate 2-PGA: non-competitive kinetics
ENO2 [3]
  thermal stabilization of recombinant ENO2: ~15 °C
[4]
  concentration sufficient to decrease the ratio of 13C Lactate/13C glucose by 70%: 6.25 µM
[5]
  effect on lactate/glucose in ENO1-rescued cells: neither PhAH nor SF2312 decreased lactate/glucose
Human ENO1
  IC50: ~20 nM
Enolase (ENO1 and ENO2)
  IC50 lower than that of PhAH: about 50%
Enolase 2
  shift of the thermal melting curve of ENO2 in intact glioma cells: ~15 °C
